The structures appear in SMILES notation.

For data set [1], the system named is Homo sapiens. Put plainly: Unbound renal drug clearance in healthy human subjects (6 subjects) at 500 mg, iv by Sarcina lutea based bioassay. It is filed as ADME, organism-based, Kidney. As to conditions: in vivo.
Data set [2] deals with Homo sapiens. Put plainly: Unbound renal drug clearance in patient with severe cirrhosis (5 patients) at 500 mg, iv by Sarcina lutea based bioassay. In kind it is ADME, organism-based, Kidney. Particulars: in vivo.
Data set [3] is described as follows: Volume of distribution at steady state in patient with severe cirrhosis (5 patients) at 500 mg, iv by Sarcina lutea based bioassay. In kind it is ADME, organism-based. As to conditions: human, in vivo, read-out: Vdss.
Data set [4] is described as follows: Unbound fraction in serum of patient with severe cirrhosis (5 patients) at 500 mg, iv by Sarcina lutea based bioassay. It is filed as ADME, organism-based. Particulars: human.
A short description of data set [5]: Unbound fraction in serum of healthy human subjects (6 subjects) at 500 mg, iv by Sarcina lutea based bioassay. It is filed as ADME, organism-based.
Data set [6] is described as follows: Volume of distribution at steady state in healthy human subjects (6 subjects) at 500 mg, iv by Sarcina lutea based bioassay. As to conditions: in vivo, read-out: Vdss. In kind it is ADME, organism-based.
Data set [7] can be described thus: Total drug clearance in patient with severe cirrhosis (5 patients) at 500 mg, iv by Sarcina lutea based bioassay. In kind it is ADME, organism-based. Particulars: human, in vivo.
The nature of data set [8]: Total drug clearance in healthy human subjects (6 subjects) at 500 mg, iv by Sarcina lutea based bioassay. Particulars: in vivo. In kind it is ADME, organism-based.
The subject of data set [9] is Homo sapiens. Put plainly: Unbound drug clearance in patient with severe cirrhosis (5 patients) at 500 mg, iv by Sarcina lutea based bioassay. In kind it is ADME, organism-based. As to conditions: in vivo.
Data set [10] has as its system Homo sapiens. Put plainly: Unbound drug clearance in healthy human subjects (6 subjects) at 500 mg, iv by Sarcina lutea based bioassay. Particulars: in vivo. In kind it is ADME, organism-based.
Data set [11] deals with Homo sapiens. The experiment in a line: Unbound non-renal drug clearance in patient with severe cirrhosis (5 patients) at 500 mg, iv by Sarcina lutea based bioassay. It is filed as ADME, organism-based. As to conditions: in vivo.
Data set [12] relates to Homo sapiens. The experiment in a line: Unbound non-renal drug clearance in healthy human subjects (6 subjects) at 500 mg, iv by Sarcina lutea based bioassay. It is filed as ADME, organism-based. Particulars: in vivo.
The nature of data set [13]: Terminal half life in patient with severe cirrhosis (5 patients) at 500 mg, iv by Sarcina lutea based bioassay. It is filed as ADME, organism-based. As to conditions: human, in vivo, read-out: beta t1/2 (converted).
A short description of data set [14]: Terminal half life in healthy human subjects (6 subjects) at 500 mg, iv by Sarcina lutea based bioassay. In kind it is ADME, organism-based. Particulars: in vivo, read-out: beta t1/2 (converted).

By fraction unbound is commonly meant free concentration divided by total concentration. Higher therefore signals weak binding. In general, clearance refers to the rate of elimination divided by the concentration. Low readings indicate inefficient removal, high ones efficient removal. `CC[C@H]1OC(=O)[C@H](C)[C@@H](O[C@H]2C[C@@](C)(OC)[C@@H](O)[C@H](C)O2)[C@H](C)[C@@H](O[C@@H]2O[C@H](C)C[C@H](N(C)C)[C@H]2O)[C@](C)(O)C[C@@H](C)C(=O)[C@H](C)[C@@H](O)[C@]1(C)O.O=C(O)[C@H](O)[C@@H](O)[C@H](O[C@@H]1O[C@H](CO)[C@@H](O)[C@@H](O)[C@H]1O)[C@H](O)CO`: the CL free in data set [1] turned out to be 14.5 L/h; in data set [2] it was 11.2 L/h; in [9], 42.2 L/h; in data set [10], 113.2 L/h; in data set [11], 31.6 L/h; in data set [12], 98.6 L/h. The Vd turned out to be 85.5 L in data set [3] and 57.6 L in [6]. Besides, the figures for the free fraction (fraction unbound) in data set [4] and in data set [5] were 0.583 and 0.305, respectively. The clearance in data set [7] is 403 mL/min; in data set [8], 570 mL/min. The half-life in [13] was 2.24 h; in data set [14], 1.36 h.

The record behind these values is ChEMBL document CHEMBL3785026, “Pharmacokinetics of erythromycin in patients with severe cirrhosis. Respective influence of decreased serum binding and impaired liver metabolic capacity” (Br J Clin Pharmacol, 1987).
